Measurements taken from patent publication US8993565B2, “(6-oxo-1,6-dihydropyrimidin-2-yl)amide derivatives, preparation thereof and pharmaceutical use thereof as AKT(PKB) phosphorylation inhibitors” (Sanofi, priority 2009, dated 2015).

tested on: AKT protein phosphorylated on serine 473 (P-AKT-S473); experiment: Study of pAKT expression in PC3 human prostate carcinoma cells measured by the MSD Multi-spot Biomarker Detection technique (Test B); format: cell-based; conditions: PC-3, inhibition of AKT phosphorylation (P-AKT-S473), MSD sandwich immunoassay, 1 to 2 h incubation, absolute IC50, mean of 2 experiments
Description: The inhibitory activity of the molecules on AKT phosphorylation is measured either by western blotting using the technique described below, or by the MSD Multi-spot Biomarker detection technique from Meso Scale Discovery also described below.
Study of pAKT Expression in PC3 Human Prostate Carcinoma Cells Measured by the MSD Multi-Spot Biomarker Detection Technique from Meso Scale Discovery (Test B):
The primary antibody specific for P-AKT-S473 (Kit #K151CAD) is coated on to an electrode in each well of the 96-well plates of the MSD, kit: after the addition of a protein lysate to each well, the signal is visualised by adding a secondary detection antibody labelled with an electrochemoluminescent compound. The procedure followed is that described in the kit.
On day 2, the cells are incubated in the presence or absence of the test products for 1 to 2 h at 37° C. in the presence of 5% of CO2. The molecules, diluted in dimethyl sulphoxide (DMSO Sigma #D2650), are added from a 20-times concentrated stock solution, the final percentage of DMSO being 0.1%. The molecules are tested either at a single concentration of less than or equal to 10 μM, or at increasing concentrations in a range that can extend from less than 1 nM to 10 μM.
After this incubation, the cells are lysed for the preparation of the proteins. […] At this stage, the plates containing the lysates can be stored at −20° C. or at −80° C.
The wells of the 96-well plates of the MSD kit are saturated for 1 h at ambient temperature with the blocking solution of the MSD kit. Four washes are carried out with 150 μl of Tris Wash Buffer of the MSD kit. The lysates previously prepared are transferred into the 96-well multi-spot plates of the MSD kit and incubated for 1 h at ambient temperature, with shaking. Four washes are carried out with 150 μl of Tris Wash Buffer of the MSD kit. 25 μl of the MSD sulfo-tag detection antibody solution are added to the wells and incubated for 1 h at ambient temperature, with shaking. Four washes are carried out with 150 μl of Tris Wash Buffer of the MSD kit. 150 μl of Read Buffer of the MSD kit are added to the wells and the plates are read immediately on the S12400 instrument from Meso Scale Discovery.
The instrument measures a signal for each well. Wells without cells and containing the lysis buffer serve to determine the background noise that will be subtracted from all the measurements (min). The wells containing cells in the absence of product and in the presence of 0.1% DMSO are considered to be the 100% signal (max). The percentage inhibition is calculated for each concentration of test product according to the following formula: (1-((test-min)(max-min)))×100.
2 independent experiments make it possible to calculate the mean of the IC50 values.

| IC50 [nM] | Structure (SMILES) |
| --- | --- |
| 432 | COC(=O)c1cc(F)ccc1NC(=O)Cc1nc(N2CCOCC2)cc(=O)[nH]1 [Example 144, Methyl 5-fluoro-2-({[4-(morpholin-4-yl)-6-oxo-1,6-dihydropyrimidin-2-yl]acetyl}amino)benzoate] |
| 180 | O=C(Cc1nc(N2CCOCC2)cc(=O)[nH]1)N1CCc2ncccc21 [Example 146, 2-[2-(2,3-dihydro-1H-pyrrolo[3,2-b]pyridin-1-yl)-2-oxoethyl]-6-(morpholin-4-yl)pyrimidin-4(3H)-one] |
| 1 | O=C(Cc1nc(N2CCOCC2)cc(=O)[nH]1)N1CCc2c(Br)cccc21 [Example 135, 2-[2-(4-Bromo-2,3-dihydroindol-1-yl)-2-oxoethyl]-6-morpholin-4-yl-3H-pyrimidin-4-one] |
| 174 | O=C(Cc1nc(N2CCOCC2)cc(=O)[nH]1)Nc1ccc(F)cc1OCC1CCNCC1 [Example 133, N-[4-fluoro-2-(piperidin-4-ylmethoxy)phenyl]-2-[4-(morpholin-4-yl)-6-oxo-1,6-dihydropyrimidin-2-yl]acetamide] |
| 503 | NC(=O)C1Cc2ccccc2N1C(=O)Cc1nc(N2CCOCC2)cc(=O)[nH]1 (centres unmarked) [Example 122, 1-{[4-(morpholin-4-yl)-6-oxo-1,6-dihydropyrimidin-2-yl]acetyl}-2,3-dihydro-1H-indole-2-carboxamide] |
| 23 | O=C(Cc1nc(N2CCOCC2)cc(=O)[nH]1)Nc1ccccc1OCCN1CCCC1 [Example 112, 2-[4-(morpholin-4-yl)-6-oxo-1,6-dihydropyrimidin-2-yl]l-N-{2-[2-(pyrrolidin-1-yl)ethoxy]phenyl}acetamide] |
| 43 | Cn1c(CC(=O)N2CCc3c(O)cccc32)nc(N2CCOCC2)cc1=O [Example 109, 2-[2-(4-hydroxy-2,3-dihydro-1H-indol-1-yl)-2-oxoethyl]-3-methyl-6-(morpholin-4-yl)pyrimidin-4(3H)-one] |
| 664 | O=C(Cc1nc(N2CCOCC2)cc(=O)[nH]1)Nc1ccccc1OCc1cccnc1 [Example 113, 2-[4-(morpholin-4-yl)-6-oxo-1,6-dihydropyrimidin-2-yl]-N-[2-(pyridin-3-ylmethoxy)phenyl]acetamide] |
| 60 | COc1cccc2c1CCN2C(=O)Cc1nc(N2CCOCC2)cc(=O)[nH]1 [Example 141, 2-[2-(4-Methoxy-2,3-dihydroindol-1-yl)-2-oxoethyl]-6-morpholin-4-yl-3H-pyrimidin-4-one] |
| 189 | Cc1cccc(NC(=O)Cc2nc(N3CCOCC3)cc(=O)[nH]2)c1O [Example 150, N-(2-hydroxy-3-methylphenyl)-2-[4-(morpholin-4-yl)-6-oxo-1,6-dihydropyrimidin-2-yl]acetamide] |
| 4 | O=C(Cc1nc(N2CCOCC2)cc(=O)[nH]1)N1CCc2cc(F)c(F)cc21 [Example 147, 2-[2-(5,6-Difluoro-2,3-dihydroindol-1-yl)-2-oxoethyl]-6-morpholin-4-yl-3H-pyrimidin-4-one] |
| 124 | O=C(Cc1nc(N2CCOCC2)cc(=O)[nH]1)N1CCc2cc(Cl)ccc21 [Example 134, 2-[2-(5-Chloro-2,3-dihydroindol-1-yl)-2-oxoethyl]-6-morpholin-4-yl-3H-pyrimidin-4-one] |
| 29 | O=C(Cc1nc(N2CCOCC2)cc(=O)[nH]1)Nc1cccc([N+](=O)[O-])c1O [Example 151, N-(2-hydroxy-3-nitrophenyl)-2-[4-(morpholin-4-yl)-6-oxo-1,6-dihydropyrimidin-2-yl]acetamide] |
| 28 | CC1(C)CN(C(=O)Cc2nc(N3CCOCC3)cc(=O)[nH]2)c2ccccc21 [Example 154, 2-[2-(3,3-dimethyl-2,3-dihydro-1H-indol-1-yl)-2-oxoethyl]-6-(morpholin-4-yl)pyrimidin-4(3H)-one] |

Further lines, the molecule ahead of its results:

| Structure (SMILES) | IC50 [nM] |
| --- | --- |
| N#Cc1cc(NC(=O)Cc2nc(N3CCOCC3)cc(=O)[nH]2)ccc1F [Example 24, N-(3-cyano-4-fluorophenyl)-2-[4-(morpholin-4-yl)-6-oxo-1,6-dihydropyrimidin-2-yl]acetamide] | 247 |
| O=C(Cc1nc(N2CCOCC2)cc(=O)[nH]1)Nc1cc(Cl)c(F)c(Cl)c1 [Example 61, N-(3,5-dichloro-4-fluorophenyl)-2-[4-(morpholin-4-yl)-6-oxo-1,6-dihydropyrimidin-2-yl]acetamide] | 77 |
| O=C(Cc1nc(N2CCOCC2)cc(=O)[nH]1)N1CCc2c(Cl)cccc21 [Example 89, 2-[2-(4-chloro-2,3-dihydro-1 H-indol-1-yl)-2-oxoethyl]-6-(morpholin-4-yl)pyrimidin-4(3 H)-one] | 3 |
| Cn1c(CC(=O)Nc2ccc(F)c(CO)c2)nc(N2CCOCC2)cc1=O [Example 81, N-[4-fluoro-3-(hydroxymethyl)phenyl]-2-[1-methyl-4-(morpholin-4-yl)-6-oxo-1,6-dihydropyrimidin-2-yl]acetamide] | 1940 |
| Cc1cccc2c1CCN2C(=O)Cc1nc(N2CCOCC2)cc(=O)[nH]1 [Example 100, 2-[2-(4-methyl-2,3-dihydro-1H-indol-1-yl)-2-oxoethyl]-6-(morpholin-4-yl)pyrimidin-4(3H)-one] | 3 |
| Cn1c(CC(=O)Nc2cc(F)c(F)c(F)c2)nc(N2CCOCC2)cc1=O [Example 98, 2-(1-methyl-4-morpholin-4-yl-6-oxo-1,6-dihydropyrimidin-2-yl)-N-(3,4,5-trifluorophenyl)acetamide] | 219 |
| C#Cc1cc(NC(=O)Cc2nc(N3CCOCC3)cc(=O)[nH]2)ccc1F [Example 90, N-(3-ethynyl-4-fluorophenyl)-2-[4-(morpholin-4-yl)-6-oxo-1,6-dihydropyrimidin-2-yl]acetamide] | 14 |
| O=C(Cc1nc(N2CCOCC2)cc(=O)[nH]1)Nc1ccc(F)cc1F [Example 5, N-(2,4-difluorophenyl)-2-[4-(morpholin-4-yl)-6-oxo-1,6-dihydropyrimidin-2-yl]acetamide] | 51 |
| Cn1c(CC(=O)Nc2ccc(F)c(C(F)F)c2)nc(N2CCOCC2)cc1=O [Example 97, N-[3-(difluoromethyl)-4-fluorophenyl]-2-[1-methyl-4-(morpholin-4-yl)-6-oxo-1,6-dihydropyrimidin-2-yl]acetamide] | 260 |
| O=C(Cc1nc(N2CCOCC2)cc(=O)[nH]1)Nc1cccc(F)c1O [Example 87, N-(3-fluoro-2-hydroxyphenyl)-2-[4-(morpholin-4-yl)-6-oxo-1,6-dihydropyrimidin-2-yl]acetamide] | 75 |
| O=C(Cc1nc(N2CCOCC2)cc(=O)[nH]1)N1CCc2cc(F)ccc21 [Example 103, 2-[2-(5-Fluoro-2,3-dihydroindol-1-yl)-2-oxoethyl]-6-morpholin-4-yl-3H-pyrimidin-4-one] | 7 |
| O=C(Cc1nc(N2CCOCC2)cc(=O)[nH]1)Nc1ccc(F)c(C(F)F)c1 [Example 76] | 77 |
| COCCOc1ccccc1NC(=O)Cc1nc(N2CCOCC2)cc(=O)[nH]1 [Example 108, N-[2-(2-methoxyethoxy)phenyl]-2-[4-(morpholin-4-yl)-6-oxo-1,6-dihydropyrimidin-2-yl]acetamide] | 56 |
| O=C(Cc1nc(N2CCOCC2)cc(=O)[nH]1)Nc1ccc(F)c(F)c1F [Example 53, 2-[4-(morpholin-4-yl)-6-oxo-1,6-dihydropyrimidin-2-yl]-N-(2,3,4-trifluorophenyl)acetamide] | 66 |
| COc1cc(NC(=O)Cc2nc(N3CCOCC3)cc(=O)n2C)ccc1F [Example 83, N-(4-fluoro-3-methoxyphenyl)-2-[1-methyl-4-(morpholin-4-yl)-6-oxo-1,6-dihydropyrimidin-2-yl]acetamide] | 115 |
| O=C(Cc1nc(N2CCOCC2)cc(=O)[nH]1)Nc1ccc(F)c(I)c1 [Example 74, N-(4-fluoro-3-iodophenyl)-2-[4-(morpholin-4-yl)-6-oxo-1,6-dihydropyrimidin-2-yl]acetamide] | 10 |
| O=C(Cc1nc(N2CCOCC2)cc(=O)[nH]1)N1CCc2c1ccc(F)c2F [Example 94, 2-[2-(4,5-difluoro-2,3-dihydro-1H-indol-1-yl)-2-oxoethyl]-6-(morpholin-4-yl)pyrimidin-4(3H)-one] | 11 |
| CN(C)c1cccc(NC(=O)Cc2nc(N3CCOCC3)cc(=O)[nH]2)c1 [Example 4, N-[3-(dimethylamino)phenyl]-2-[4-(morpholin-4-yl)-6-oxo-1,6-dihydropyrimidin-2-yl]acetamide] | 145 |
